Laboratory results taken from patent US12029730B2, “Pharmaceutical composition for preventing or treating cancer, containing N-1H-benzimidazol-2-yl-3-(1H-pyrrole-1-yl)benzamide as active ingredient” (KOREA INSTITUTE OF RADIOLOGICAL & MEDICAL SCIENCES, priority 2018, dated 2024).

Key:
Format in all cases: cell-based, human
MCF7 cells [1] = test: Colony formation analysis; conditions: MCF7, cultured 15 days, compared to DMSO, FIG. 7
Method: Colony formation analysis was performed to confirm whether the selected MKI-1 can effectively kill cancer cells. First, breast cancer cells MCF7 (500-1000 cells) were cultured in a 60 mm culture plate, and after 24 hours, it was treated with MASTL kinase inhibitors (AT13148, MKI-1 and GKI-1), respectively and cultured for 15 days. Cells were fixed and stained with […] to which methanol was added to quantify the number of colonies, which was shown in FIG. 7.

MCF10A cells = test: WST-8 cell viability assay, normal cell line MCF10A; conditions: 3.70, 11.11, 33.33 and 100 μM, FIG. 6
Method: (§1) In addition, the cell line in this experiment was distributed from ATCC (American Type Culture Collection; Manassas, VA). Human-derived tumor cell lines, breast cancer cell lines MCF7 and T47D was cultured in DMEM medium containing 10% fetal bovine serum (FBS; HyClone, South Logan, UT) and 1% penicillin/streptomycin (Corning, NY, USA) at 37° C. and 5% CO2, and the BT549 breast cancer cell line was cultured in RPMI 1640 (Welgene, Daegu, Korea) as a medium used under the same conditions. Human-derived normal cell line MCF10A was cultured in DMEM/F12 (Invitrogen) medium containing 5% horse serum (Invitrogen), 1% penicillin/streptomycin, 20 ng/ml EGF (Peprotech, London, UK), […] (Sigma-Aldrich, MO, USA), 100 ng/ml cholera toxin (Cholera Toxin, Sigma-Aldrich) and 10 μg Insulin (Sigma-Aldrich) at 37° C. and 5% CO2.
(§2) Briefly, MCF7 and MCF10A cells were seeded into 96-well plates, incubated for 24 hours, and then was treated with 42 inhibitor candidates. Among the compounds, the multi-AGC kinase inhibitor AT13148 was used as a positive control. Thereafter, the absorbance was measured at 450 nm using a Versamax microplate reader (Molecular Devices, CA, USA), and the results of the experiment were shown in FIG. 1A.
(§3) In order to confirm whether the selected MKI-1 can kill only cancer cells, an experiment was performed by treating with MKI-1 and measuring whether the cell viability of breast cancer cell lines and normal cell lines was changed. WST-8 analysis (Cyto X™ cell viability assay kit, LPS solution, Daejeon, Korea) was performed according to the manufacturer's protocol. Cancer cells MCF7 and BT549 and normal cell line MCF10A cells were inoculated into a 96-well plate, cultured for 24 hours, and then treated with MASTL kinase inhibitors at various concentrations (3.70, 11.11, 33.33 and 100 μM). Thereafter, the absorbance was measured at 450 nm using a Versamax micro plate reader (Molecular Devices, CA, USA), and the results were shown in FIG. 6.

MCF7 cells [2] = test: Tumorsphere formation assay; conditions: MCF7, cultured 15 days, compared to DMSO, FIG. 8
Method: A tumorsphere formation assay was performed in order to determine whether the selected MKI-1 can effectively reduce the formation of tumorsphere in cancer cells, Breast cancer cells MCF7 (2500-10000 cells) was suspended in serum-free DMEM/F12 (weIGENE) containing 1% penicillin, B-27 (1:50; invitrogen), 20 ng/mL epidermal cell growth factor (R&D Systems) and 20 ng/mL fibroblast growth factor (R&D Systems) and cultured on plates with low adhesion rate. After 24 hours, the cells were treated with MASTL kinase inhibitors (AT13148, MKI-1 and GKI-1), respectively, and cultured for 15 days, and then the diameter of the tumorsphere was measured and quantified, which was shown in FIG. 8.

MCF7 cells [3] = test: WST-8 cell viability assay, breast cancer cell line MCF7; conditions: 3.70, 11.11, 33.33 and 100 μM, FIG. 6
Method: as §1, §2, §3

MCF7 cells [4] = test: 3D culture spheroid formation; conditions: MCF7 3D culture, AT13148 2 μM, GKI-1 10 μM, MKI-1 10 μM, FIG. 9
Method: 3D culture was performed according to the protocol of the manufacturing company TheWell Bioscience. It was inoculated into 24-wells containing a DMEM mixture containing 10,000 MCF7 cells in an MCF7 cell:hydrogel solution in a ratio of 1:3 (v/v) and VitroGel™ 3D-RGD diluted with 0.1% PBS in a ratio of 1:3 (v/v) of a hydrogel:diH2O. Thereafter, incubation was performed at 37° C. for 15 minutes to stabilize the VitroGel 3D-RGD hydrogel. To cover the hydrogel, the same volume of DMEM as the hydrogel was added, and the next day, the hydrogel was treated with a DMSO base drug containing DMSO, AT13148 (2 μM), GKI-1 (10 μM) and MKI-1 (10 μM). The medium was exchanged every 2 days for 14 to 20 days.

BT549 cells = test: WST-8 cell viability assay, breast cancer cell line BT549; conditions: 3.70, 11.11, 33.33 and 100 μM, FIG. 6
Method: as §1, §3

AKT = test: Western blotting of AKT and GSK-3 phosphorylation in MCF7 cells; conditions: western blot, FIG. 5
Method: 20 μg of protein was separated by SDS-PAGE electrophoresis and transferred to a PVDF membrane, and the following specific antibodies were used: rabbit polyclonal antibody MASTL (Abgent); phospho-ENSA (Ser67)/ARPP19 (Ser62) (#5240), ENSA (#11915S), cleaved PARP (Asp214) (#9541), AKT (#9272), phospho-AKT (ser473) (#9271), phospho-GSK-3α/β (Ser21/9) (#9331), phospho-p70S6K (The 288) (#9205) and phospho-Chk2 (Thr68) (#2661; Cell Signaling Technology, MA); p70S6K (sc-230; Santa Cruz Biotechnology, CA, USA), phospho-H3 (S10) (06-570, Merck, NJ); mouse monoclonal antibody caspase-2 (#2224S). In addition, mouse […] antibody β-actin (C4; Santa Cruz Biotechnology, CA, USA) was used as a loading control, it was washed with 1×PBS/0.1% Tween 20, and the binding protein was detected using HRP-binding secondary antibody and improved chemiluminescence detection system. The remaining conditions of Western blotting were the same as in Example 3, and the image of the band was obtained by Amersham Imager 600 system (GE Healthcare Life Science) or X-Ray film (AG, HealthCare, SC, USA) and it was shown in FIG. 5.

Question: How did the “number of cancer cell colonies” value (MCF7 cells [1]) turn out when `NC[C@@](O)(c1ccc(Cl)cc1)c1ccc(-c2cn[nH]c2)cc1` [AT13148, reference compound] was run?
Answer: The value was “significantly reduced”.

Question: And the “cell viability, normal cell line MCF10A” value (MCF10A cells)?
Answer: Its value is “drastically reduced cell viability”.

Question: And the tumorsphere diameter (MCF7 cells [2])?
Answer: The tumorsphere diameter was “significantly decreased”.

Question: What about the “cell viability, MCF7” value (MCF7 cells [3]) of the same molecule?
Answer: Its value is “drastically reduced cell viability”.

Question: And the “size of cancer cell spheroid” value (MCF7 cells [4])?
Answer: Its value is “significantly reduced”.

Question: What about the “cell viability, BT549” value (BT549 cells) of the same molecule?
Answer: Its value is “drastically reduced cell viability”.

Question: What about the “activation of AKT / phosphorylated GSK-3” value (AKT) of the same molecule?
Answer: Its value is “strongly inhibited the activation of AKT”.
